Data published in paper PMC4623779, “1-Octen-3-ol – the attractant that repels” (F1000Research, 2015).
Positions count from the first letter of the chain named.

What follows are compounds tested against T1, CquiOR114b-2 (co-expressed with CquiOrco) (Culex quinquefasciatus, UniProt A0A3G1CJJ8) (assay: two-electrode voltage clamp, Xenopus oocytes, current traces). Details: agonist current, 1 to 10 µM, enantiomer not stated.
T1 construct: full length, 405 residues (longer C-terminus); pGEMHE, Xenopus oocytes co-expressing CquiOrco; with Odorant receptor coreceptor
T1 sequence (A0A3G1CJJ8 1-405): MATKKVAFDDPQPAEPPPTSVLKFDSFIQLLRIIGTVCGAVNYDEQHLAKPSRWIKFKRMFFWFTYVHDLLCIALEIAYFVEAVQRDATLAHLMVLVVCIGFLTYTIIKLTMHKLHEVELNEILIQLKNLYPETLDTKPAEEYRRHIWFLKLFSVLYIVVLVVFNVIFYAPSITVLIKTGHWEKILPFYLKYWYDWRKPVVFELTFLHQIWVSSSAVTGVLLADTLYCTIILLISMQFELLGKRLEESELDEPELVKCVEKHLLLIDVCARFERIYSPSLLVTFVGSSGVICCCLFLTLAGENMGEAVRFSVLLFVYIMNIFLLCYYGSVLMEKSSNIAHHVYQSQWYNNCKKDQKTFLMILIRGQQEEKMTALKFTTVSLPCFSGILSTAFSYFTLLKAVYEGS
Format: cell-based
From the text: two-electrode voltage clamp, Xenopus oocytes, current traces on CquiOR114b-2 (co-expressed with CquiOrco) | CquiOR114b-2 and CquiOrco (lower trace). Compounds were delivered in the following order | CquiOR114b-2 and CquiOrco (lower trace). Compounds were delivered in the following order: 1-octyn-3-ol

SMILES | two-electrode voltage clamp, Xenopus oocytes, current traces
C#CC(O)CCCCC (centres unmarked) [1-octyn-3-ol] | CquiOR114b-2 and CquiOrco (lower trace). Compounds were delivered in the following order: 1-octyn-3-ol
C=CC(O)CCCCC (centres unmarked) [1-octen-3-ol] | CquiOR114b-2 and CquiOrco (lower trace). Compounds were delivered in the following order
CCCCCC(O)CC (centres unmarked) [3-octanol] | CquiOR114b-2 and CquiOrco (lower trace). Compounds were delivered in the following order

These compounds were tested against T2, CquiOR114b-1 (co-expressed with CquiOrco) (Culex quinquefasciatus, UniProt A0A3G1CJK1) (assay: two-electrode voltage clamp, Xenopus oocytes, concentration-response). Details: agonist current, 1, 10 and 100 µM, holding -80 to -70 mV.
T2 construct: full length, 405 residues (longer C-terminus); pGEMHE, Xenopus oocytes co-expressing CquiOrco; with Odorant receptor coreceptor
T2 sequence (A0A3G1CJK1 1-405): T1 sequence (A0A3G1CJJ8 1-405) with W63L, E122G, N129D
Format: cell-based

SMILES | two-electrode voltage clamp, Xenopus oocytes, concentration-response
CCCCC[C@H](O)CC [(R)-3-octanol] | robust responses to 3-octanol, with responses to the ( R)- and ( S)-stereoisomers being almost indistinguishable
C#C[C@H](O)CCCCC [(R)-1-octyn-3-ol] | oocytes were challenged with enantiomers of 1-octen-3-ol, 1-octyn-3-ol, and 3-octanol
C=C[C@H](O)CCCCC [(R)-1-octen-3-ol] | currents elicited by ( R)-1-octen-3-ol were significantly lower than those obtained with its antipode
C#C[C@@H](O)CCCCC [(S)-1-octyn-3-ol] | showed preference for ( S)-isomers of 1-octen-3-ol and 1-octyn-3-ol
CCCCC[C@@H](O)CC [(S)-3-octanol] | robust responses to 3-octanol, with responses to the ( R)- and ( S)-stereoisomers being almost indistinguishable
C=C[C@@H](O)CCCCC [(S)-1-octen-3-ol] | significantly lower than those obtained with its antipode, ( S)-1-octen-3-ol

The compounds below were run against T2, CquiOR114b-1 (co-expressed with CquiOrco) (assay: two-electrode voltage clamp, Xenopus oocytes, current traces). Details: agonist current, 1 to 10 µM, enantiomer not stated.
Format: cell-based

SMILES | two-electrode voltage clamp, Xenopus oocytes, current traces
C#CC(O)CCCCC (centres unmarked) [1-octyn-3-ol] | oocytes co-expressing CquiOR114b-1 and CquiOrco (top trace)
C=CC(O)CCCCC (centres unmarked) [1-octen-3-ol] | oocytes co-expressing CquiOR114b-1 and CquiOrco (top trace)
CCCCCC(O)CC (centres unmarked) [3-octanol] | oocytes co-expressing CquiOR114b-1 and CquiOrco (top trace)

These compounds were tested against T3, CquiOR118b (co-expressed with CquiOrco) (Culex quinquefasciatus, UniProt A0A3G1CJJ7) (assay: two-electrode voltage clamp, Xenopus oocytes, concentration-response). Details: agonist current, 0.01, 0.1 and 1 µM, holding -80 to -70 mV.
T3 construct: full-length short version, 391 residues, shorter N-terminus than the VectorBase prediction CPIJ013954; pGEMHE, Xenopus oocytes co-expressing CquiOrco; with Odorant receptor coreceptor
T3 sequence (A0A3G1CJJ7 1-391): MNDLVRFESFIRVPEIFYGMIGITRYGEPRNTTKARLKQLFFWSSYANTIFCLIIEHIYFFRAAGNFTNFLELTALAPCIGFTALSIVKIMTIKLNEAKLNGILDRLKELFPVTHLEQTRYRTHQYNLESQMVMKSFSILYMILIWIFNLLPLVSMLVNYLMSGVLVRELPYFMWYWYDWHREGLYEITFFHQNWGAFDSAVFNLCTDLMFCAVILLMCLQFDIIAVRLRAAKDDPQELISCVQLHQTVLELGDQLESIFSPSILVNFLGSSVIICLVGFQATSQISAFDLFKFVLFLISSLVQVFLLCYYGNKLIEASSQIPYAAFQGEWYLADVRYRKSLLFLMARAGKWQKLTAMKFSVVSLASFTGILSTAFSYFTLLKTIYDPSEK
Format: cell-based

SMILES | two-electrode voltage clamp, Xenopus oocytes, concentration-response
CCCCC[C@H](O)CC [(R)-3-octanol] | the responses to ( R)-3-octanol were relatively high
C#C[C@H](O)CCCCC [(R)-1-octyn-3-ol] | CquiOR118b showed dramatic enantioselectivity towards ( R)-as compared to ( S)-1-octyn-3-ol
C=C[C@H](O)CCCCC [(R)-1-octen-3-ol] | robust responses were elicited by ( R)-1-octen-3-ol in a dose-dependent manner
C#C[C@@H](O)CCCCC [(S)-1-octyn-3-ol] | CquiOR118b showed dramatic enantioselectivity towards ( R)-as compared to ( S)-1-octyn-3-ol
C=C[C@@H](O)CCCCC [(S)-1-octen-3-ol] | currents generated by its antipode, ( S)-1-octen-3-ol, were relatively very small
